System: 743489-274-T-PDC complex spheroid viability
Assay: Anticancer human tumor 743489-274-T-PDC patient-derived renal cell carcinoma cell line growth inhibition
Conditions: for IC50: curve of first compound; for viability, T/C: stronger effect = lower value
Method in brief: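 Multicellular complex spheroids of tumor cells with human endothelial cells (HUVEC) and mesenchymal stem cells; the LSD1 inhibitor iadademstat was combined with standard-of-care or investigational agents. Top concentration at or near clinical Cmax, half-log dilutions; final DMSO ≤0.25%.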

[1] = second compound 0.1 µM, first compound 0.000949 µM
[2] = second compound 0.1 µM, first compound 0.003 µM
[3] = second compound 0.1 µM, first compound 0.00949 µM
[4] = second compound 0.1 µM, first compound 0.03 µM
[5] = second compound 0.1 µM, first compound 0.0949 µM
[6] = second compound 0.1 µM, first compound 0.3 µM
[7] = second compound 0.316 µM, first compound 0.000949 µM
[8] = second compound 0.316 µM, first compound 0.003 µM
[9] = second compound 0.316 µM, first compound 0.00949 µM
[10] = second compound 0.316 µM, first compound 0.03 µM
[11] = second compound 0.316 µM, first compound 0.0949 µM
[12] = second compound 0.316 µM, first compound 0.3 µM
[13] = second compound 1 µM, first compound 0.000949 µM
[14] = second compound 1 µM, first compound 0.003 µM
[15] = second compound 1 µM, first compound 0.00949 µM
[16] = second compound 1 µM, first compound 0.03 µM
[17] = second compound 1 µM, first compound 0.0949 µM
[18] = second compound 1 µM, first compound 0.3 µM
[19] = second compound 3.16 µM, first compound 0.000949 µM
[20] = second compound 3.16 µM, first compound 0.003 µM
[21] = second compound 3.16 µM, first compound 0.00949 µM
[22] = second compound 3.16 µM, first compound 0.03 µM
[23] = second compound 3.16 µM, first compound 0.0949 µM
[24] = second compound 3.16 µM, first compound 0.3 µM
[25] = second compound 10 µM, first compound 0.000949 µM
[26] = second compound 10 µM, first compound 0.003 µM
[27] = second compound 10 µM, first compound 0.00949 µM
[28] = second compound 10 µM, first compound 0.03 µM
[29] = second compound 10 µM, first compound 0.0949 µM
[30] = second compound 10 µM, first compound 0.3 µM
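Further: spheroids exposed to compounds for 7 days before readout.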
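Wherever viability, T/C is given: 100% = DMSO vehicle control wells.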

## COc1cc(Nc2ncc3c(n2)-c2ccc(Cl)cc2C(c2c(F)cccc2OC)=NC3)ccc1C(=O)O + NC1CCC(NC2CC2c2ccccc2)CC1
Second compound 0.1 µM
  IC50: > 1 µM
Second compound 0.316 µM
  IC50: > 1 µM
Second compound 1 µM
  IC50: > 1 µM
Second compound 3.16 µM
  IC50: > 1 µM
Second compound 10 µM
  IC50: > 1 µM
Second compound 0.1 µM, first compound 0.00316 µM
  viability, T/C: 104%
Second compound 0.1 µM, first compound 0.01 µM
  viability, T/C: 104%
Second compound 0.1 µM, first compound 0.0316 µM
  viability, T/C: 92.6%
Second compound 0.1 µM, first compound 0.1 µM
  viability, T/C: 86.2%
Second compound 0.1 µM, first compound 0.316 µM
  viability, T/C: 90.3%
Second compound 0.1 µM, first compound 1 µM
  viability, T/C: 82.2%
Second compound 0.316 µM, first compound 0.00316 µM
  viability, T/C: 100%
Second compound 0.316 µM, first compound 0.01 µM
  viability, T/C: 96%
Second compound 0.316 µM, first compound 0.0316 µM
  viability, T/C: 103%
Second compound 0.316 µM, first compound 0.1 µM
  viability, T/C: 82.5%
Second compound 0.316 µM, first compound 0.316 µM
  viability, T/C: 89.7%
Second compound 0.316 µM, first compound 1 µM
  viability, T/C: 85%
Second compound 1 µM, first compound 0.00316 µM
  viability, T/C: 104%
Second compound 1 µM, first compound 0.01 µM
  viability, T/C: 105%
Second compound 1 µM, first compound 0.0316 µM
  viability, T/C: 88.8%
Second compound 1 µM, first compound 0.1 µM
  viability, T/C: 86.6%
Second compound 1 µM, first compound 0.316 µM
  viability, T/C: 92.5%
Second compound 1 µM, first compound 1 µM
  viability, T/C: 97.2%
Second compound 3.16 µM, first compound 0.00316 µM
  viability, T/C: 92.6%
Second compound 3.16 µM, first compound 0.01 µM
  viability, T/C: 100%
Second compound 3.16 µM, first compound 0.0316 µM
  viability, T/C: 100%
Second compound 3.16 µM, first compound 0.1 µM
  viability, T/C: 79.4%
Second compound 3.16 µM, first compound 0.316 µM
  viability, T/C: 104%
Second compound 3.16 µM, first compound 1 µM
  viability, T/C: 97.2%
Second compound 10 µM, first compound 0.00316 µM
  viability, T/C: 102%
Second compound 10 µM, first compound 0.01 µM
  viability, T/C: 111%
Second compound 10 µM, first compound 0.0316 µM
  viability, T/C: 105%
Second compound 10 µM, first compound 0.1 µM
  viability, T/C: 99.2%
Second compound 10 µM, first compound 0.316 µM
  viability, T/C: 102%
Second compound 10 µM, first compound 1 µM
  viability, T/C: 93.8%

## CCc1c2c(nc3ccc(O)cc13)-c1cc3c(c(=O)n1C2)COC(=O)[C@]3(O)CC + NC1CC1c1ccc(-c2cccc(O)c2)cc1
Second compound 0.1 µM
  IC50: 0.00488 µM
Second compound 0.316 µM
  IC50: 0.0024 µM
Second compound 1 µM
  IC50: 0.00271 µM
Second compound 3.16 µM
  IC50: 0.00226 µM
Second compound 10 µM
  IC50: 0.00352 µM
[1]
  viability, T/C: 62.5%
[2]
  viability, T/C: 52.5%
[3]
  viability, T/C: 47.3%
[4]
  viability, T/C: 33.7%
[5]
  viability, T/C: 36.4%
[6]
  viability, T/C: 33.5%
[7]
  viability, T/C: 54.3%
[8]
  viability, T/C: 51.7%
[9]
  viability, T/C: 45.5%
[10]
  viability, T/C: 35%
[11]
  viability, T/C: 36.7%
[12]
  viability, T/C: 40.2%
[13]
  viability, T/C: 60.5%
[14]
  viability, T/C: 51.9%
[15]
  viability, T/C: 41.3%
[16]
  viability, T/C: 39%
[17]
  viability, T/C: 43.9%
[18]
  viability, T/C: 42.7%
[19]
  viability, T/C: 57%
[20]
  viability, T/C: 48.7%
[21]
  viability, T/C: 42.3%
[22]
  viability, T/C: 33.5%
[23]
  viability, T/C: 36.7%
[24]
  viability, T/C: 34.5%
[25]
  viability, T/C: 58.7%
[26]
  viability, T/C: 50.8%
[27]
  viability, T/C: 42.5%
[28]
  viability, T/C: 35.3%
[29]
  viability, T/C: 32%
[30]
  viability, T/C: 38.8%

## CCc1c2c(nc3ccc(O)cc13)-c1cc3c(c(=O)n1C2)COC(=O)[C@]3(O)CC + NC1CCC(NC2CC2c2ccccc2)CC1
Second compound 0.1 µM
  IC50: 0.0659 µM
Second compound 0.316 µM
  IC50: 0.0286 µM
Second compound 1 µM
  IC50: 0.0478 µM
Second compound 3.16 µM
  IC50: 0.0221 µM
Second compound 10 µM
  IC50: 0.215 µM
[1]
  viability, T/C: 86.3%
[2]
  viability, T/C: 68.7%
[3]
  viability, T/C: 62.7%
[4]
  viability, T/C: 43.7%
[5]
  viability, T/C: 54.4%
[6]
  viability, T/C: 47.8%
[7]
  viability, T/C: 96.8%
[8]
  viability, T/C: 72.7%
[9]
  viability, T/C: 54.2%
[10]
  viability, T/C: 46.7%
[11]
  viability, T/C: 49.9%
[12]
  viability, T/C: 51.4%
[13]
  viability, T/C: 94.5%
[14]
  viability, T/C: 70.6%
[15]
  viability, T/C: 70%
[16]
  viability, T/C: 50.4%
[17]
  viability, T/C: 42.1%
[18]
  viability, T/C: 44%
[19]
  viability, T/C: 95.2%
[20]
  viability, T/C: 92.8%
[21]
  viability, T/C: 62.1%
[22]
  viability, T/C: 48.2%
[23]
  viability, T/C: 41.3%
[24]
  viability, T/C: 44%
[25]
  viability, T/C: 89.8%
[26]
  viability, T/C: 79.1%
[27]
  viability, T/C: 64.5%
[28]
  viability, T/C: 69.4%
[29]
  viability, T/C: 51.3%
[30]
  viability, T/C: 48.5%
